From US8440654B2, “Thieno- and furo-pyrimidine modulators of the histamine H4 receptor” (Janssen Pharmaceutica NV, priority 2007, dated 2013)
Where a name gives a salt, the structure may show the parent alone.

Target: T1, human histamine H4 receptor (Homo sapiens, UniProt Q9H3N8)
T1 construct: expressed in transfected cells; host or cells: SK-N-MC cells or COS7 cells, transiently transfected with pH4R; membrane preparation
Assay: Binding Assay on Recombinant Human Histamine H4 Receptor
Settings: competition binding with 3H-histamine, membranes of SK-N-MC or COS7 cells transfected with human H4R; average of results obtained
Description: Biological Methods: Binding Assay on Recombinant Human Histamine H4 Receptor.
SK-N-MC cells or COS7 cells were transiently transfected with pH4R and grown in 150 cm^2 tissue culture dishes. Cells were washed with saline solution, scraped with a cell scraper and collected by centrifugation (1000 rpm, 5 min). Cell membranes were prepared by homogenization of the cell pellet in 20 mM Tris-HCl with a polytron tissue homogenizer for 10 sec at high speed. Homogenate was centrifuged at 1000 rpm for 5 min at 4° C. The supernatant was then collected and centrifuged at 20,000×g for 25 min at 4° C. The final pellet was resuspended in 50 mM Tris-HCl. Cell membranes were incubated with ^3H-histamine (5-70 nM) in the presence or absence of excess histamine (10,000 nM). Incubation occurred at room temperature for 45 min. Membranes were harvested by rapid filtration over Whatman GF/C filters and washed 4 times with ice-cold 50 mM Tris HCl. Filters were then dried, mixed with scintillant and counted for radioactivity. SK-N-MC or COS7 cells expressing human histamine H4 receptor were used to measure the affinity of binding of other compounds and their ability to displace ^3H-ligand binding by incubating the above-described reaction in the presence of various concentrations of inhibitor or compound to be tested. For competition binding studies using ^3H-histamine, K values were calculated, based on an experimentally determined KD value of 5 nM and a ligand concentration of 5 nM, according to Y.-C.

Ki | SMILES
150 nM | CN1C[C@@H]2CN(c3nc(N)nc4c5c(sc34)CCC(F)(F)C5)C[C@@H]2C1 [Example 121, 8,8-Difluoro-4-[(3aR,6aS)-5-methylhexahydropyrrolo[3,4-c]pyrrol-2(1H)-yl]-6,7,8,9-tetrahydro[1]benzothieno[3,2-d]pyrimidin-2-amine (free amine)]
64 nM | Nc1nc(N2CC(N)C2)c2oc3c(c2n1)CC(F)(F)CC3 [Example 127, 4-(3-Aminoazetidin-1-yl)-8,8-difluoro-6,7,8,9-tetrahydro[1]benzofuro[3,2-d]pyrimidin-2-amine hydrochloride]
2 nM | Nc1nc(N2CC[C@@H](N)C2)c2oc3c(c2n1)CCCC3 [Example 24, 4-[(3R)-3-Aminopyrrolidin-1-yl-6,7,8,9-tetra-hydro[1]benzofuro[3,2-d]pyrimidin-2-aminetrifluoroacetic acid salt]
2.1 nM | Nc1nc(N2CCCNCC2)c2sc3c(c2n1)CC(F)(F)CC3 [Example 114, 4-(1,4-Diazepan-1-yl)-8,8-difluoro-6,7,8,9-tetrahydro[1]benzothieno[3,2-d]pyrimidin-2-amine trifluoroacetate]
18 nM | CN[C@@H]1CCN(c2nc(N)nc3c4c(oc23)CCC(C)(C)C4)C1 [Example 137, 8,8-Dimethyl-4-[(3R)-3-(methylamino)pyrrolidin-1-yl]-6,7,8,9-tetrahydro[1]benzofuro[3,2-d]pyrimidin-2-amine hydrochloride]
14 nM | Nc1nc(N2CCNCC2)c2sc3c(c2n1)CC(F)(F)CC3 [Example 58, 8,8-Difluoro-4-piperazin-1-yl-6,7,8,9-tetrahydro[1]ben-zothieno[3,2-d]pyrimidin-2-amine trifluoroacetic acid salt]
33 nM | Nc1nc(N2C[C@H]3CCCN[C@H]3C2)c2oc3c(c2n1)CC(F)(F)CC3 [Example 124, 4-((R,R)-octahydropyrrolo[3,4-b]pyridin-6-yl)-8,8-difluoro-6,7,8,9-tetrahydro[1]benzofuro[3,2-d]pyrimidin-2-amine trifluoroacetate]
5 nM | CNC1CCN(c2nc(N)nc3c4c(sc23)CCCCC4)C1 (stereo in doubt) [Example 47, trifluoroacetic acid salt]
33 nM | CN[C@H]1CCN(c2nc(N)nc3c4c(sc23)CCCC4)C1 [Example 55, 4-[(3S)-3-(Methyl-amino)pyrrolidin-1-yl]-6,7,8,9-tetrahydro[1]benzo-thieno[3,2-d]pyrimidin-2-amine trifluoroacetic acid salt]
6.1 nM | Nc1nc(N2CC[C@H](N)C2)c2oc3c(c2n1)CC(F)(F)CC3 [Example 126, 4-[(3S)-3-Aminopyrrolidin-1-yl]-8,8-difluoro-6,7,8,9-tetrahydro[1]benzofuro[3,2-d]pyrimidin-2-amine hydrochloride]

The remaining lines, values behind:

SMILES | Ki
CCN1CCN(c2nc(N)nc3c4c(sc23)CCCC4)CC1 [Example 51, 4-(4-Ethylpiperazin-1-yl)-6,7,8,9-tetrahydro[1]benzo-thieno[3,2-d]pyrimidin-2-amine trifluoroacetic acid salt] | 205 nM
Nc1nc(N2C[C@H]3C[C@@H]2CN3)c2sc3c(c2n1)CCCC3 [Example 36, 4-[(1R,4R)-2,5-Diazabicy-clo[2.2.1]hept-2-yl]-6,7,8,9-tetrahydro[1]benzothi-eno[3,2-d]pyrimidin-2-amine] | > 10000 nM
CC1CCc2sc3c(N4C[C@H]5CCCN[C@H]5C4)nc(N)nc3c2C1 (stereo partly drawn) [Example 45, 8-Methyl-4-[(4aR,7aR)-octa-hydro-6H-pyrrolo-[3,4-b]pyridin-6-yl]-6,7,8,9-tetra-hydro[1]benzothieno[3,2-d]pyrimidin-2-amine trifluoroacetic acid salt] | 4 nM
Nc1nc(N2CCCNCC2)c2sc3c(c2n1)CCCC3 [Example 37, 4-(1,4-Diazepan-1-yl)-6,7,8,9-tetrahydro[1]benzo-thieno[3,2-d]pyrimidin-2-amine hydrochloric acid salt] | 15 nM
CN1CCN(c2nc(N)nc3c4c(sc23)CCCC4)CC1 [Example 2, 4-(4-Methyl-piperazin-1-yl)-6,7,8,9-tetrahydro-benzo[4,5]thieno[3,2-d]pyrimidin-2-ylamine] | 13 nM
Nc1nc(N2C[C@H]3CCN[C@H]3C2)c2sc3c(c2n1)CCCC3 [Example 4, 4-[(3aR,6aR)-Hexahydropyrrolo[3,4-b]pyrrol-5(1H)-yl]-6,7,8,9-tetrahydro[1]benzothieno[3,2-d]pyrimidin-2-amine] | 21 nM
CC(C)(C)c1cc2nc(N)nc(N3CC4CCCNC4C3)c2s1 (centres unmarked) [Example 19, 6-tert-Butyl-4-(octahydro-6H-pyrrolo[3,4-b]pyridin-6-yl)thieno[3,2-d]pyrimidin-2-amine trifluoroacetic acid salt] | 244 nM
c1nc(N2CCNCC2)c2oc3c(c2n1)CCCC3 [Example 9, 4-piperazin-1-yl-6,7,8,9-tetrahydro-benzo[4,5]furo[3,2-d]pyrimidine] | 110 nM
Nc1nc(N2C[C@H]3CCCN[C@H]3C2)c2sc3c(c2n1)CCCCC3 [Example 48, 4-[(4aR,7aR)-Octahydro-6H-pyrrolo[3,4-b]pyridin-6-yl]-7,8,9,10-tetrahydro-6H-cyclohepta[4,5-d]pyrimidin-2-amine trifluoroacetic acid salt] | 3 nM
Nc1nc(N2C[C@H]3CCCN[C@H]3C2)c2sc3c(c2n1)CCCC3 [Example 32, 4-[(4aR,7aR)-Octahydro-6H-pyrrolo[3,4-b]pyridin-6-yl]-6,7,8,9-tetrahydro[1]benzo-thieno[3,2-,d]pyrimidin-2-amine] | 2 nM
